Data taken from patent US11225484B2, “Substituted octahydropyrrolo[3,4-b]pyrroles as antagonists of the muscarinic acetylcholine receptor M4” (Vanderbilt University, priority 2017, dated 2022).

Tests used:
Human M4 = biological target: T1, Human M4 (Homo sapiens, UniProt P08173); assay: mAChR M4 cell-based functional assay (calcium flux, human M4/Gqi5/CHO cells); conditions: for remaining activity at 30 µM: CHO, % ACh maximum at 30 μM, read-out: Emin (%) human M4; for IC50: antagonist mode, decrease of the response to an EC80 concentration of acetylcholine, CHO-K1 cells with Gqi5
T1 construct: expressed in transfected cells; host or cells: CHO-K1 (ATCC), co-transfected with chimeric G protein Gqi5
T1 sequence (P08173 1-479): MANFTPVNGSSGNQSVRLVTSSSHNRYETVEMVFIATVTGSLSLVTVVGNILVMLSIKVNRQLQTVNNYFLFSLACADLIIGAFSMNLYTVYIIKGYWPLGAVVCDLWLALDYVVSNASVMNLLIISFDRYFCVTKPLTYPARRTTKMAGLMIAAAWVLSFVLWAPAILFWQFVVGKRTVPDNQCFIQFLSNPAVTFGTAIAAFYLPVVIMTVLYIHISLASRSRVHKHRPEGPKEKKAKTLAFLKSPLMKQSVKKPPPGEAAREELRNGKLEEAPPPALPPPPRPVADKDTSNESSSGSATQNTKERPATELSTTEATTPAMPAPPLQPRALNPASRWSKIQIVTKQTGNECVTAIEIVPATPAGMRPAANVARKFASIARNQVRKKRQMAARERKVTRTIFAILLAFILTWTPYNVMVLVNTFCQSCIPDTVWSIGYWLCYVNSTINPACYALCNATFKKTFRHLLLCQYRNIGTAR
Description: (§1) Human or rat M4 cDNA, along with the chimeric G protein Gqi5, were transfected into Chinese hamster ovary (CHO-K1) cells purchased from the American Type Culture Collection using Lipofectamine2000. M4/Gqi5/CHO cells were grown in Ham's F-12 medium containing 10% heat-inactivated fetal bovine serum (FBS), 20 mM HEPES, 500 μg/mL G418 sulfate, and 200 μg/mL Hygromycin B.
(§2) For high throughput measurement of agonist-evoked increases in intracellular calcium, CHO-K1 cells stably expressing muscarinic receptors were plated in growth medium lacking G418 and hygromycin at 15,000 cells/20 μL/well in Greiner 384-well black-walled, tissue culture (TC)-treated, clear-bottom plates (VWR). Cells were incubated overnight at 37° C. and 5% CO2. The next day, cells were washed using an ELX 405 (BioTek) with assay buffer; the final volume was then aspirated to 20 μL. Next, 20 μL of a 2.3 μM stock of Fluo-4/acetoxymethyl ester (Invitrogen, Carlsbad, Calif.), prepared as a 2.3 mM stock in DMSO and mixed in a 1:1 ratio with 10% (w/v) Pluronic F-127 and diluted in assay buffer, was added to the wells and the cell plates were incubated for 50 min at 37° C. and 5% CO2. Dye was removed by washing with the ELX 405 and the final volume was aspirated to 20 μL. Compound master plates were formatted in a 10 point concentration-response curve (CRC) format (1:3 dilutions) in 100% DMSO with a starting concentration of 10 or 1 mM using a BRAVO liquid handler (Agilent). Test compound CRCs were then transferred to daughter plates (240 nL) using the Echo acoustic plate reformatter (Labcyte, Sunnyvale, Calif.) and then diluted into assay buffer (40 μL) to a 2× stock using a Thermo Fisher Combi (Thermo Fisher Scientific, Waltham, Mass.).
(§3) Calcium flux was measured using the Functional Drug Screening System (FDSS) 6000 or 7000 (Hamamatsu Corporation, Tokyo, Japan) as an increase in the fluorescent static ratio. Compounds were applied to cells (20 μL, 2×) using the automated system of the FDSS at 2 seconds into the protocol and the data were collected at 1 Hz. At 143 s, 10 μL of an EC20 concentration of the muscarinic receptor agonist acetylcholine was added (5×), followed by the addition of 12 μL of an EC80 concentration of acetylcholine at the 268 s time point (5×). Agonist activity was analyzed as a concentration-dependent increase in calcium mobilization upon compound addition. Positive allosteric modulator activity was analyzed as a concentration-dependent increase in the EC20 acetylcholine response. Antagonist activity was analyzed as a concentration-dependent decrease in the EC80 acetylcholine response for the purposes of the tables herein, an IC50 (inhibitory concentration 50) was calculated as a concentration-dependent decrease of the response elicited by an EC80 concentration of acetylcholine, Concentration-response curves were generated using a four-parameter logistical equation in XLFit curve fitting software (IDBS, Bridgewater, N.J.) for Excel (Microsoft, Redmond, Wash.) or Prism (GraphPad Software, Inc., San Diego, Calif.) or the Dotmatics software platform (Dotmatics, Bishop's Stortford, UK).
(§4) Compounds were synthesized as described above. Activity (IC50 and Emin) was determined in the mAChR M4 cell-based functional assay as described above and the data are shown in Table 2. The compound number corresponds to the compound numbers used in Examples 1-3.

Rat M4 = biological target: T2, Rat M4 (Rattus norvegicus, UniProt P08485); assay: mAChR M4 cell-based functional assay (calcium flux, rat M4/Gqi5/CHO cells); conditions: for remaining activity at 30 µM: CHO, % ACh maximum at 30 μM, read-out: Emin (%) rat M4; for IC50: antagonist mode, decrease of the response to an EC80 concentration of acetylcholine, CHO-K1 cells with Gqi5
T2 construct: expressed in transfected cells; host or cells: CHO-K1 (ATCC), co-transfected with chimeric G protein Gqi5
T2 sequence (P08485 1-478): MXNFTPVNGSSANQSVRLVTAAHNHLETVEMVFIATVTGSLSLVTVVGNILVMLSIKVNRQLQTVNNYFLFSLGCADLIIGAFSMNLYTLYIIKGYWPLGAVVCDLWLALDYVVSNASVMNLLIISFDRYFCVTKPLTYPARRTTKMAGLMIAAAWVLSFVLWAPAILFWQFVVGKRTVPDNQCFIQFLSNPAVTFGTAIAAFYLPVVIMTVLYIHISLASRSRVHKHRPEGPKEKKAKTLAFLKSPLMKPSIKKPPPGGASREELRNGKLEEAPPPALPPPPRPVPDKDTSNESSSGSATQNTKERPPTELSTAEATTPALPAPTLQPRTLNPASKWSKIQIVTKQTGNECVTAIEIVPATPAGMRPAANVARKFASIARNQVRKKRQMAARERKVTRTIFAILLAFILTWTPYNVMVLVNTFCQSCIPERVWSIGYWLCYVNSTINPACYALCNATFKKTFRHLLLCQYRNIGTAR
Description: as §1, §2, §3, §4

[1] = tested on: catalepsy induced by the DA receptor antagonist haloperidol; assay: haloperidol-induced catalepsy; format: in vivo, mice
Source text: Furthermore, haloperidol-induced catalepsy, a model of parkinsonian motor disability, is reduced in M4 knockout mice as compared to wild-type controls. […] The reversal by scopolamine was uncommonly robust and more pronounced than we observe with agents targeting a number of other targets being evaluated for potential antiparkinsonian effects, including metabotropic glutamate (mGlu) receptors mGlu4 or mGlu5, A2A adenosine receptors, and NMDA receptors. […] Taken together with the extensive studies of M4 modulation of basal ganglia and motor function, these studies provide compelling evidence that M4 is the dominant mAChR subtype involved in the antiparkinsonian effects of non-selective mAChR antagonists and provide support for discovery and development of selective M4 antagonists for treatment of neurodegenerative disease such as PD, dystonia, tardive dyskinesia and other movement disorders.

locomotor activity = conditions: M4 knockout mice, but not the other four mAChR subtypes; cited from earlier work

Row | Compound | remaining activity at 30 µM (Human M4) [%] | IC50 (Human M4) [nM] | remaining activity at 30 µM (Rat M4) [%] | IC50 (Rat M4) [nM] | reduction of haloperidol-induced catalepsy ([1]; M4 KO mice) | reversal of haloperidol-induced catalepsy ([1]; WT mice) | locomotor-activating effects (locomotor activity)
1 | Cc1cnn(C)c1-c1ccc(N2CC[C@H]3CN(CC45CC6CC(CC(C6)C4)C5)C[C@H]32)nn1 [Compound 23, (3aS,6aS)-5-(adamantan-1-ylmethyl)-1-(6-(1,4-dimethyl-1H-pyrazol-5-yl)pyridazin-3-yl)octahydropyrrolo[3,4-b]pyrrole] | 3.91 | 102 | 4.52 | 326 | – | – | –
2 | Cc1cnn(C)c1-c1ccc(N2CCC3CN(CCCC(C)(C)C)CC32)nn1 (stereo not shown) [Compound 2, 1-(6-(1,4-Dimethyl-1H-pyrazol-5-yl)pyridazin-3-yl)-5-(4,4-dimethylpentyl)octahydropyrrolo[3,4-b]pyrrole] | 3.83 | 647 | 6.85 | 1500 | – | – | –
3 | CN1[C@@H]2C[C@@H](OC(=O)[C@H](CO)c3ccccc3)C[C@H]1[C@@H]1O[C@@H]12 [scopolamine] | – | – | – | – | ineffective in reducing catalepsy | completely reversed | dramatically reduced
4 | CC/C=C\CCCN1CC2CCN(c3ccc(-c4c(C)cnn4C)nn3)C2C1 (stereo not shown) [Compound 12, (Z)-1-(6-(1,4-dimethyl-1H-pyrazol-5-yl)pyridazin-3-yl)-5-(hept-4-en-1-yl)octahydropyrrolo[3,4-b]pyrrole] | 15.1 | > 10000 | 45.2 | > 10000 | – | – | –

Now from value to compound, other results behind:

Row | remaining activity at 30 µM (Human M4) [%] | IC50 (Human M4) [nM] | remaining activity at 30 µM (Rat M4) [%] | IC50 (Rat M4) [nM] | Compound | reduction of haloperidol-induced catalepsy ([1]; M4 KO mice) | reversal of haloperidol-induced catalepsy ([1]; WT mice) | locomotor-activating effects (locomotor activity)
5 | 4.12 | 453 | 4.82 | 1890 | Cc1cnn(C)c1-c1ccc(N2CCC3CN(CC4C5CC6CC(C5)CC4C6)CC32)nn1 (stereo not shown) [Compound 10, 5-(adamantan-2-ylmethyl)-1-(6-(1,4-dimethyl-1H-pyrazol-5-yl)pyridazin-3-yl)octahydropyrrolo[3,4-b]pyrrole] | – | – | –
6 | 6.61 | 3380 | 32.4 | > 10000 | Cc1cnn(C)c1-c1ccc(N2CCC3CN(CC4CCN(Cc5ccccc5)CC4)CC32)nn1 (stereo not shown) [Compound 8, 5-((1-benzylpiperidin-4-yl)methyl)-1-(6-(1,4-dimethyl-1H-pyrazol-5-yl)pyridazin-3-yl)octahydropyrrolo[3,4-b]pyrrole] | – | – | –
7 | 8.8 | 2220 | 22.7 | > 10000 | Cc1cnn(C)c1-c1ccc(N2CCC3CN(CCC(C)(C)C)CC32)nn1 (stereo not shown) [Compound 20, 1-(6-(1,4-dimethyl-1H-pyrazol-5-yl)pyridazin-3-yl)-5-(3,3-dimethylbutyl)octahydropyrrolo[3,4-b]pyrrole] | – | – | –
8 | 6.12 | 1430 | 26.2 | > 10000 | Cc1cnn(C)c1-c1ccc(N2CCC3CN(CCCc4ccccc4)CC32)nn1 (stereo not shown) [Compound 7, 1-(6-(1,4-dimethyl-1H-pyrazol-5-yl)pyridazin-3-yl)-5-(3-phenylpropyl)octahydropyrrolo[3,4-b]pyrrole] | – | – | –
